Source: patent publication US11506670B2, “Method of genome-wide direct identification of electrophile-sensing targets” (Cornell University, priority 2018, dated 2022)

Assays:
PTEN = biological target: T1, PTEN (Homo sapiens, UniProt P60484); experiment: Immunofluorescence of endogenous PIP3 after PTEN-targeted T-REX; assay type: cell-based; conditions: T-REX HNEylation of Halo-PTEN
T1 construct: host or cells: HEK-293
Method: (i) Transient transfection using TransIT-2020. Split HEK-293 cells in four 35 mm glass-bottom dishes. For each dish, seeding ˜4×10^5 cells in 2.0 mL total cell culture medium should result in cells that are ˜40-50% confluent after 24 h, which represents optimal cell density. Too low and too high cell density may result in excessive cell death or poor transfection efficiency respectively. Higher cell density is also not optimal for imaging.
(ii) Transfect each plate with 2000 ng of Halo-PTEN plasmid. Transfect with TransIT-2020 following the manufacturer's protocol.
(iv) Treatment of cells with T-REX™ delivery photocaged precursor, photo-uncaging and cell fixing (TIMING: 8 hours). Treat the cells with photocaged precursor as described in Section 2, Step 39A.
(v) After shining light on the sample, incubate the plates at 37° C. for 10 hours. […]
(xviii) Images were analyzed using ImageJ software (NIH). Briefly, the average green fluorescence intensity (intensity of signal due to PIP3) for each cell was determined by drawing a free hand circle around the image. This was repeated for each condition such that 50-100 cells were analyzed each time from multiple different frames. A global average of the green fluorescence intensity was calculated for each condition, then these values were plotted and analyzed using prism. […]

[1] = test system: Ube2V2 ubiquitination and cellular Ub pools; experiment: Ubiquitination analysis by IP, K63-TUBE pulldown and western blot in HEK293T cells; assay type: cell-based, human
Method: Cells were lysed in 1×RIPA buffer containing in final concentrations 1× Protease inhibitor, 1 mM sodium orthovanadate and 1 mM PMSF, by rapid freeze-thaw (×3). Cell debris was removed and the supernatant was collected after centrifugation at 18,000×g for 20 min at 4° C. Protein concentration was determined using Bradford assay. 30-50 μg of total lysates were subjected to SDS-PAGE and the gel was transferred onto a PVDF membrane at 100 V for 1 h at 4° C. or at 40 V overnight at 4° C. Membrane was blocked with 10% milk and probed with various antibodies at the indicated dilutions (Table 4, above).
HEK 293T cells were seeded in 2×60 cm^2 plates. After the cells reached 60% confluence (˜18-24 h), the old media was replaced with 8 mL of fresh complete media. Cells were transfected with 7.5 μg of the designated Halo clone and 30 μL PEI (1 mg/mL) in 600 μL in Opti-MEM media for 24-36 h after which the cells were treated with 25 μM Ht-PreHNE for 2.5 h. Rinsing and light shining protocol were as described above. Cells were harvested, pooled, washed twice with chilled 1×DPBS and flash frozen. Cell lysis was performed in 100-200 μL per 1.5×10^6 cells of either: lysis buffer [containing in final concentrations 50 mM HEPES (pH 7.6), 150 mM NaCl, 1% Nonidet P-40 and 1× Roche cOmplete, mini, EDTA-free protease inhibitor cocktail] for Flag pull down; or RIPA buffer [containing in final concentrations 50 mM HEPES (pH 7.6), 150 mM NaCl, 1% Nonidet P-40, 0.1% SDS, 0.25% sodium deoxycholate, and 1× Roche cOmplete, mini, EDTA-free protease inhibitor cocktail] for HA pull down, followed by rapid freeze-thaw cycles (×3). Lysate was clarified by centrifugation at 18,000×g for 10 min at 4° C. Total protein concentration was determined using Bradford assay with BSA as standard. The lysate was subsequently diluted to 2 mg/mL with binding buffer containing in final concentrations 50 mM HEPES (pH 7.6), 150 mM NaCl, 1× Roche cOmplete, mini, EDTA-free protease inhibitor cocktail, and 0.1% Tween-20. This diluted lysate was subjected to either 50-100 μL bed volume of ANTI-FLAG® M2 affinity gel (A2220, Sigma) or monoclonal anti-HA-agarose (clone HA-7, A2095, Sigma) that had been pre-equilibrated with the binding buffer above. The sample was incubated with beads for 2-3 h at 4° C. by end-over-end rotation after which time the supernatant was removed post-centrifugation at 1000×g (anti-FLAG pull down) or 5000×g (anti-HA pull down) for 3 min. The beads were washed three times at 4° C. with 500 μL wash buffer containing in final concentrations 50 mM HEPES (pH 7.6), 150 mM NaCl, 1× Roche cOmplete, mini, EDTA-free protease inhibitor cocktail, and 0.1% Tween-20, using end-over-end rotation over 10 min during each wash. The bound protein was eluted by either incubating with 0.15 mg/mL 3× flag peptide for 2 h at 4° C. (anti-Flag pull down) or by boiling the beads at 98° C. for 10 min with 30 μL of 3× Laemmeli dye containing 6% βME (anti-HA pull down). The sample was subjected to SDS-PAGE and transferred to a PVDF membrane for western blot analysis described above.
Cells were grown and transfected as described above. After T-REX™ delivery, cells were harvested and lysed in 100-200 μL (˜1.5×10^6 cells) of lysis buffer [containing in final concentrations 50 mM HEPES (pH 7.6), 300 nM Biotin K63-TUBE, 150 mM NaCl, 5 mM EDTA, 3 mM 1,10-phenanthroline, 5 mM NEM, 20 μM PR-619, 1% Nonidet P-40 and 1× Roche cOmplete, mini, EDTA-free protease inhibitor cocktail] according to manufactures' manual (Biotin K63 TUBE, Lifesensors). Lysate was clarified by centrifugation at 18,000×g for 10 min at 4° C. Total protein concentration was determined using Bradford assay using BSA as standard. […]

T1 sequence (P60484 whole entry): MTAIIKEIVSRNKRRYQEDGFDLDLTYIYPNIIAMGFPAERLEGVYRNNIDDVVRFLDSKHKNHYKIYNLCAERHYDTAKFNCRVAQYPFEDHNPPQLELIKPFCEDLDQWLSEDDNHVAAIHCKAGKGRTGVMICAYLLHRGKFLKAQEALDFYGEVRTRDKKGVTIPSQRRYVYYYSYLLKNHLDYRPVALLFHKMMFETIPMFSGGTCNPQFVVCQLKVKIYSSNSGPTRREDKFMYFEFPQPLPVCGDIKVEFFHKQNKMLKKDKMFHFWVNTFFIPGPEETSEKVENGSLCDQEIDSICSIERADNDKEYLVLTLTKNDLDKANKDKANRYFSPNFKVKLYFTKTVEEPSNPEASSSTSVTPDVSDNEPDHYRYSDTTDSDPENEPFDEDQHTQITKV

Question: What does the source list for `CCCCCC(O)/C=C/C=O` (stereo not shown) [HNE, 4-hydroxynonenal]?
Answer: endogenous PIP3 level (PTEN): upregulation of PIP3; K63-linked total cellular Ub pools ([1]; HEK293T): did not alter K63-linked total cellular Ub pools; pan cellular poly-Ub-pools ([1]; HEK293T): no effect; K63-linked ubiquitination of Ube2V2 upon T-REX delivery ([1]; cells expressing wt-Ube2V2, not C69S): significantly upregulated
